Reference: US20140121236A1, “Compositions and Methods for Treating Myotonic Dystrophy Type 1” (UNIVERSITY OF SOUTHERN CALIFORNIA, priority 2012, published 2014)

Columns and labels:
[1] = test system: DM1 myoblasts; experiment: Toxicity by shape and size of the nuclei of DM1 myoblasts; format: cell-based, human; parameters: key: −: Nontoxic; +: 10% alterations in nuclei shape and size; ++: 20-30% alterations in nuclei shape and size; +++: 40-50% alterations in nuclei shape and size; ++++: 60% alterations in nuclei shape and size; +++++: very sick, almost no surviving cells; settings: 4 days
[2] = test system: DM1 myoblasts; experiment: Viability of DM1 myoblasts by counting surviving cells; format: cell-based, human; settings: 4 days, surviving cells vs vehicle control
[3] = test system: CUG-RNA foci in DM1 myoblasts; experiment: FISH analysis of nuclear CUG-RNA foci in DM1 myoblasts; format: cell-based, human; settings: 4 days, FISH
Description: DM1 myoblasts were then treated with 10 μM of either RCN-001 or the vehicle (DMSO) for 4 days and then examined by FISH using a Cy3 (CAG)10 probe.
Normal myoblasts were purchased from Lonza, Inc. DM1 myoblasts were a gift from Dr. Charles Thornton. Normal and DM1 myoblasts were maintained in SkGM Medium (Lonza, Inc.) containing 10% Fetal Bovine Serum and 1% Penicillin-Streptomycin, 5% CO2 at 37° C. Human Embryonic Kidney 293 Cells (293HEK) were maintained in Dulbecco's Modification of Eagle's Medium (DMEM) from Cellgro supplemented with 10% Fetal Bovine Serum and 1% Penicillin-Streptomycin, 5% CO2 at 37° C.
CUG-RNA foci were detected by performing FISH on untreated DM1 myoblasts and DM1 myoblasts following treatment. For FISH analysis, DM1 myoblasts were plated on a 24-well clear bottom polystyrene plate with circular glass coverslips followed by treatment. Prior to FISH analysis, cells were fixed using 4% paraformaldehyde in 1×PBS for 20 min at room temperature. FISH analysis was performed using a Cy3 conjugated (CAG)10 oligonucleotide probe (Integrated DNA Technologies, Inc.) as described by Taneja et al, 1995 and Dansithong et al, 2005. CUG-RNA foci were observed as a red signal using fluorescence microscopy. Immunofluorescence was performed as described by Dansithong et al, 2008. Endogenous SHARP was detected using SHARP polyclonal antibodies from Bethyl at a dilution of 1:1000. The secondary antibodies conjugated with FITC (Invitrogen) were used at a 1:2000 dilution. Chloride channel 1 (Clcn1 a.k.a. CIC-1) was detected using CIC-1 polyclonal antibodies from Santa Cruz. The secondary antibodies conjugated with Alexa Flour 488 (Invitrogen) were used at a 1:2000 dilution. FISH analysis in mouse muscle section was carried out as described in Mancodi et al, 2000 (9).

[4] = test system: DM1 splicing defects; settings: literature reference 16 (Warf et al.); cited from earlier work
[5] = test system: MBNL1 and MBNL2 RNA splicing in DM1 myoblasts; experiment: Splicing assay (RT-PCR) for RNAs from DM1 myoblasts; format: cell-based, human; settings: 50 μM, 17 hours, RT-PCR
Description: A. Total RNA was isolated from normal (SKMC) myoblasts, untreated DM1 myoblasts and DM1 myoblasts treated with 50 μM RCN-001 or 50 μM Pentamidine for 17 hours and subjected to RT-PCR analysis using the indicated primers sets for MBNL1 and MBNL2 RNAs. GAPDH RNA was amplified in parallel as an internal control. The results of one of three experiments are shown. B. The relative levels of exon inclusion was measured by densitometry and tabulated as mean % exon inclusion +/− standard deviation.
Treatment of DM1 myoblasts with RCN-001 is also sufficient to rescue abnormal RNA splicing. Two RNAs were selected that show abnormal splicing in DM1 myoblasts: MBNL1 and MBNL2. DM1 myoblast were treated with 50 μM RCN-001 for 17 hours after which RNA was isolated and splice variants were analyzed as previously described (20-22).
Splicing assays for RNAs isolated from human myoblasts. DM1 patient myoblasts was treated with 50 μM of RCN-001 or Pentamidine for 17 h as described by Warf et al, 2009. Total RNA was isolated using the RNAeasy mini kit (Qiagen Inc., USA) following manufacture's protocol. cDNA was synthesized using 5 μg of total RNA using First-Strand cDNA synthesis kit (GE Healthcare). PCR amplification was carried out using 150 ng of cDNA for 35 cycles for each target RNA. The primers used for PCR amplification are as follows—
The relative band intensities were measured using densitometry analyses and the percent of exon inclusion was calculated as [exon inclusion/(exon inclusion+exon exclusion)]×100.

SMILES: CCCCCCc1cc2cc(-c3nnc(-c4ccc([N+](=O)[O-])cc4)o3)c(=O)oc2cc1O [RCN--005]
- Toxicity: Toxic ([1]; Table 1, 10 μM): ++++ (60% alterations in nuclei shape and size)
- Toxicity: Viable ([2]; Table 1, 10 μM): + (10-20% cell survival)
- # of Foci (percentage) 0-1: Percentage of cells with no or 1 nuclear foci ([3]; Table 1, 10 μM): 14 percentage
- # of Foci (percentage) >2: Percentage of cells with 2 or greater nuclear foci ([3]; Table 1, 10 μM): 86 percentage

SMILES: CCCCCCc1cc2cc(-c3cn4ccc(C)cc4n3)c(=O)oc2cc1O [RCN-013, 6-hexyl-7-hydroxy-3-(7-methylimidazo[1,2-a]pyridine-2-yl)-2H-chromen-2-one]
- Toxicity: Toxic ([1]; Table 4, 10 μM): +++ (40-50% alterations in nuclei shape and size)
- Toxicity: Viable ([2]; Table 4, 10 μM): +++ (50-60% cell survival)
- # of Foci (percentage) 0-1: Percentage of cells with no or 1 nuclear foci ([3]; Table 4, 10 μM): 13 percentage
- # of Foci (percentage) >2: Percentage of cells with 2 or greater nuclear foci ([3]; Table 4, 10 μM): 87 percentage

SMILES: CCN(CC)c1ccc2cc(-c3nnc(-c4ccc(Cl)cc4)o3)c(=O)oc2c1 [RCN-007, 3-(5-(4-chlorophenyl)-1,3,4-oxadiazol-2-yl)-7-(diethylamino)-2H-chromen-2-one]
- Toxicity: Toxic ([1]; Table 1, 10 μM): +++ (40-50% alterations in nuclei shape and size)
- Toxicity: Viable ([2]; Table 1, 10 μM): +++ (50-60% cell survival)
- # of Foci (percentage) 0-1: Percentage of cells with no or 1 nuclear foci ([3]; Table 1, 10 μM): 17 percentage
- # of Foci (percentage) >2: Percentage of cells with 2 or greater nuclear foci ([3]; Table 1, 10 μM): 83 percentage

SMILES: CCCCCCc1cc2cc(-c3csc(-c4nc(-c5cc6cc(CCCCCC)c(O)cc6oc5=O)cs4)n3)c(=O)oc2cc1O [RCN-012]
- Toxicity: Toxic ([1]; Table 4, 10 μM): −
- Toxicity: Viable ([2]; Table 4, 10 μM): +++++ (90-100% cell survival)
- # of Foci (percentage) 0-1: Percentage of cells with no or 1 nuclear foci ([3]; Table 4, 10 μM): 14 percentage
- # of Foci (percentage) >2: Percentage of cells with 2 or greater nuclear foci ([3]; Table 4, 10 μM): 86 percentage

SMILES: CCCCCCc1cc2cc(C(=O)Nc3cccc(Cl)c3Cl)c(=N)oc2cc1O [RCN-016, N-(2,3-dichlorophenyl)-6-hexyl-7-hydroxy-2-imino-2H-chromene-3-carboxamide]
- Toxicity: Toxic ([1]; Table 2, 10 μM): ++ (20-30% alterations in nuclei shape and size)
- Toxicity: Viable ([2]; Table 2, 10 μM): +++ (50-60% cell survival)
- # of Foci (percentage) 0-1: Percentage of cells with no or 1 nuclear foci ([3]; Table 2, 10 μM): 12 percentage
- # of Foci (percentage) >2: Percentage of cells with 2 or greater nuclear foci ([3]; Table 2, 10 μM): 88 percentage

SMILES: CCCCCCc1cc2cc(C(=O)Nc3ccc(Br)cc3)c(=O)oc2cc1O [RCN-015, N-(4-bromophenyl)-6-hexyl-7-hydroxy-2-oxo-2H-chromene-3-carboxamide]
- Toxicity: Toxic ([1]; Table 2, 10 μM): +++ (40-50% alterations in nuclei shape and size)
- Toxicity: Viable ([2]; Table 2, 10 μM): +++ (50-60% cell survival)
- # of Foci (percentage) 0-1: Percentage of cells with no or 1 nuclear foci ([3]; Table 2, 10 μM): 29 percentage
- # of Foci (percentage) >2: Percentage of cells with 2 or greater nuclear foci ([3]; Table 2, 10 μM): 71 percentage

SMILES: CCCCCCc1cc2cc(C(N)=O)/c(=N/c3ccccc3OC)oc2cc1O [RCN-019, (Z)-6-hexyl-7-hydroxy-2-((2-methoxyphenyl)imino)-2H-chromene-3-carboxamide]
- Toxicity: Toxic ([1]; Table 2, 10 μM): ++ (20-30% alterations in nuclei shape and size)
- Toxicity: Viable ([2]; Table 2, 10 μM): +++ (50-60% cell survival)
- # of Foci (percentage) 0-1: Percentage of cells with no or 1 nuclear foci ([3]; Table 2, 10 μM): 14 percentage
- # of Foci (percentage) >2: Percentage of cells with 2 or greater nuclear foci ([3]; Table 2, 10 μM): 86 percentage

SMILES: CCCCCCc1cc2cc(C(=O)Nc3ccc(Cl)c(Cl)c3)c(=O)oc2cc1O [RCN-017, N-(3,4-dichlorophenyl)-6-hexyl-7-hydroxy-2-oxo-2H-chromene-3-carboxamide]
- Toxicity: Toxic ([1]; Table 2, 10 μM): +++++
- Toxicity: Viable ([2]; Table 2, 10 μM): − (less than 10% cell survival)

SMILES: CCCCCCc1cc2cc(-c3nnc(-c4cccc(F)c4)o3)c(=O)oc2cc1O [RCN-004, 3-(5-(3-fluorophenyl)-1,3,4-oxadiazol-2-yl)-6-hexyl-7-hydroxy-2H-chromen-2-one]
- Toxicity: Toxic ([1]; Table 1, 10 μM): +++ (40-50% alterations in nuclei shape and size)
- Toxicity: Viable ([2]; Table 1, 10 μM): ++ (30-40% cell survival)
- # of Foci (percentage) 0-1: Percentage of cells with no or 1 nuclear foci ([3]; Table 1, 10 μM): 29 percentage
- # of Foci (percentage) >2: Percentage of cells with 2 or greater nuclear foci ([3]; Table 1, 10 μM): 71 percentage

SMILES: O=c1oc2ccccc2cc1-c1nnc(-c2cccc(Br)c2)o1 [RCN-008, 3-(5-(3-bromophenyl)-1,3,4-oxadiazol-2-yl)-2H-chromen-2-one]
- Toxicity: Toxic ([1]; Table 3, 10 μM): +++ (40-50% alterations in nuclei shape and size)
- Toxicity: Viable ([2]; Table 3, 10 μM): +++ (50-60% cell survival)
- # of Foci (percentage) 0-1: Percentage of cells with no or 1 nuclear foci ([3]; Table 3, 10 μM): 27 percentage
- # of Foci (percentage) >2: Percentage of cells with 2 or greater nuclear foci ([3]; Table 3, 10 μM): 23 percentage

SMILES: CCCCCCc1cc2cc(C(=O)Nc3cccc(Br)c3)c(=O)oc2cc1O [RCN-018, N-(3-bromophenyl)-6-hexyl-7-hydroxy-2-oxo-2H-chromene-3-carboxamide]
- Toxicity: Toxic ([1]; Table 2, 10 μM): +++++
- Toxicity: Viable ([2]; Table 2, 10 μM): − (less than 10% cell survival)

SMILES: CCN(CC)c1ccc2cc(-c3nnc(-c4cc5ccccc5cc4O)o3)c(=O)oc2c1 [RCN-009, 7-(diethylamino)-3-(5-(3-hydroxynaphthalen-2-yl)-1,3,4-oxadiazol-2-yl)-2H-chromen-2-one]
- Toxicity: Toxic ([1]; Table 3, 10 μM): +++ (40-50% alterations in nuclei shape and size)
- Toxicity: Viable ([2]; Table 3, 10 μM): ++ (30-40% cell survival)
- # of Foci (percentage) 0-1: Percentage of cells with no or 1 nuclear foci ([3]; Table 3, 10 μM): 11 percentage
- # of Foci (percentage) >2: Percentage of cells with 2 or greater nuclear foci ([3]; Table 3, 10 μM): 89 percentage

SMILES: N=C(N)c1ccc(OCCCCCOc2ccc(C(=N)N)cc2)cc1 [pentamidine, reference compound]
- rescue of DM1 splicing defects shown by others [4]: partially rescue DM1 splicing defects
- rescue of abnormal splicing of MBNL1 and MBNL2 [5]: did not perform as well RCN-001

SMILES: CCc1cc2c(CN3CCN(S(=O)(=O)Cc4ccccc4)CC3)cc(=O)oc2cc1O [RCN-020, 4-((4-(benzylsulfonyl)piperazin-1-yl)methyl)-6-ethyl-7-hydroxy-2H-chromen-2-one]
- Toxicity: Toxic ([1]; Table 3, 10 μM): −
- Toxicity: Toxic ([1]; Table 4, 10 μM): −
- Toxicity: Viable ([2]; Table 3, 10 μM): +++++ (90-100% cell survival)
- Toxicity: Viable ([2]; Table 4, 10 μM): +++++ (90-100% cell survival)
- # of Foci (percentage) 0-1: Percentage of cells with no or 1 nuclear foci ([3]; Table 3, 10 μM): 15 percentage
- # of Foci (percentage) >2: Percentage of cells with 2 or greater nuclear foci ([3]; Table 3, 10 μM): 85 percentage
- # of Foci (percentage) 0-1: Percentage of cells with no or 1 nuclear foci ([3]; Table 4, 10 μM): 15 percentage
- # of Foci (percentage) >2: Percentage of cells with 2 or greater nuclear foci ([3]; Table 4, 10 μM): 85 percentage

SMILES: CCCCCCc1cc2cc(C(=O)Nc3cccc(OC)c3)c(=O)oc2cc1O [RCN-014, 6-hexyl-7-hydroxy-N-(3-methoxyphenyl)-2-oxo-2H-chromene-3-carboxamide]
- Toxicity: Toxic ([1]; Table 1, 10 μM): + (10% alterations in nuclei shape and size)
- Toxicity: Toxic ([1]; Table 2, 10 μM): + (10% alterations in nuclei shape and size)
- Toxicity: Viable ([2]; Table 1, 10 μM): ++++ (70-80% cell survival)
- Toxicity: Viable ([2]; Table 2, 10 μM): ++++ (70-80% cell survival)
- # of Foci (percentage) 0-1: Percentage of cells with no or 1 nuclear foci ([3]; Table 1, 10 μM): 24 percentage
- # of Foci (percentage) >2: Percentage of cells with 2 or greater nuclear foci ([3]; Table 1, 10 μM): 76 percentage
- # of Foci (percentage) 0-1: Percentage of cells with no or 1 nuclear foci ([3]; Table 2, 10 μM): 24 percentage
- # of Foci (percentage) >2: Percentage of cells with 2 or greater nuclear foci ([3]; Table 2, 10 μM): 76 percentage

SMILES: CCCCCCc1cc2cc(-c3cn4ccccc4n3)c(=O)oc2cc1O [RCN-011, 6-hexyl-7-hydroxy-3-(imidazo[1,2-a]pyridine-2-yl)-2H-chromen-2-one]
- Toxicity: Toxic ([1]; Table 4, 10 μM): −
- Toxicity: Viable ([2]; Table 4, 10 μM): +++++ (90-100% cell survival)
- # of Foci (percentage) 0-1: Percentage of cells with no or 1 nuclear foci ([3]; Table 4, 10 μM): 17 percentage
- # of Foci (percentage) >2: Percentage of cells with 2 or greater nuclear foci ([3]; Table 4, 10 μM): 83 percentage
